Where “and” joins values, the source holds several entries; their conditions need not be identical. Equal entries are not always repeated.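 Tested at 5 concentrations; 48 h exposure; 96-well plates; endpoints linearly interpolated, else capped at highest concentration. GI50 = concentration required for 50% inhibition of growth. TGI: total growth inhibition.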
Experiments:
Experiment in all cases: inhibition of tumour cell growth, NCI panel, 48 h
[1] = system: CAKI-1 renal
[2] = system: IGROV1 ovarian
[3] = system: M14 melanoma
[4] = system: SF-295 CNS
[5] = system: SF-539 CNS
[6] = system: UACC-62 melanoma
[7] = system: HL-60(TB) leukemia
[8] = system: NCI-H460 lung
[9] = system: OVCAR-4 ovarian
[10] = system: SF-268 CNS

SMILES | TGI [1] [µM] | TGI [2] [µM] | TGI [3] [µM] | TGI [4] [µM] | TGI [5] | TGI [6] [µM] | TGI [7] [µM] | TGI [8] [µM] | TGI [9] [µM] | GI50 [1] [µM] | GI50 [2] [µM] | GI50 [3] [µM] | GI50 [8] [µM] | GI50 [9] [µM] | GI50 [10] [µM] | TGI [10] [µM] | GI50 [4] [µM] | GI50 [5] [µM] | GI50 [6] [µM] | GI50 [7] [µM]
CC1=CC(/C=C(\C)CCCc2ccoc2)C2(OC(=O)C(C)=C2O)[C@H]2C1CC[C@@H]2C (stereo not given in full) | > 100 | > 100 | 60.9 | 56.2 | 36.8 µM | 37.5 | – | – | – | – | – | – | – | – | – | – | – | – | – | –
Cc1cc(Br)cc(C)c1NC(=O)C(=O)C(C(=O)c1ccc2ccccc2c1)C1OC(=O)c2ccccc21 (stereo not given) | 51.1 | 51.8 | 30.2 | 14.9 | 11.2 µM | 29.6 | 30.2 | 20.9 | > 36.4 | – | – | – | – | – | – | – | – | – | – | –
CC1OC2CC(=O)OC2C2=C1C(=O)c1c(O)cccc1C2=O (stereo not given) | 0.148 | 0.112 | 0.193 | 2.62 | 0.284 µM | 0.287 | – | 1.75 | 0.253 | 0.0423 | 0.0508 | 0.0611 | 0.415 | 0.113 | 0.163 | 0.436 | 0.956 | 0.12 | 0.135 | –
CCCCN(CCCC)CC(C(=O)Nc1ccc([N+](=O)[O-])cc1[N+](=O)[O-])/C(C)=N\NC(=S)NN (stereo not given) | – | > 100 | > 100 | > 100 | > 100 µM | > 100 | > 100 | > 100 | – | – | – | – | – | – | – | > 100 | – | – | – | –
CCOC(=O)Oc1c(OC)cc(C(=O)NC2CCc3cc(OC)c(OC)c(OC)c3-c3ccc(SC)c(=O)cc32)cc1OC (stereo not given) | – | > 70 | 10.7 | – | 0.057 µM and 0.00743 µM | > 70 | – | – | > 70 | – | < 0.007 | 0.0166 | 0.016 | 14.8 | 0.0174 | 21.4 | 0.0242 | < 0.007 | 0.00881 | –
CC1=Nc2ccccc2C1C(Cc1ccccc1N)c1c(C)[nH]c2ccccc12 (stereo not given) | – | 36 | 28.3 | 25.8 | 31.5 µM | 26.3 | 35.7 | 35.2 | – | – | – | – | – | – | – | 21.5 | – | – | – | –
CCOc1nc(-c2ccccc2)cc2c(O)c(-c3nnco3)[nH]c(=O)c12 | > 100 | > 89.8 | > 100 | > 54.4 | > 47.1 µM | > 100 | > 100 | > 100 | – | 4.15 | 3.63 | 7.12 | 4.01 | – | 5.62 | > 100 | 4.28 | 4.39 | 6.47 | 5.86
Cc1c2cccnc2c(C)c2c1c1cc(CO)ccc1n2C | 10.5 | 9.34 | 10.4 | 10.1 | 11.7 µM | 4.56 | – | 6.12 | 10.5 | 2.06 | 0.579 | 2.49 | 1.23 | 2.82 | 2.29 | 15.1 | 1.74 | 2.49 | 1.41 | –
CCOC(=O)/C=C/C(C(=O)/C=C/c1ccc(OC2CCCCO2)c(OC)c1)=C(O)\C=C\c1ccc(OC2CCCCO2)c(OC)c1 (stereo not given) | > 100 | 6.68 | 15.3 | 42.8 | 53.1 µM | 12.8 | > 100 | 50.5 | – | 4.97 | 2.85 | 3.48 | 11.9 | – | 4.88 | > 100 | 10.7 | 20.3 | 3.02 | 3.01
O=C1CN=C(C[N+](=O)[O-])c2ccccc21 | > 100 | > 100 | > 100 | > 100 | > 100 µM | – | > 100 | > 100 | > 100 | – | – | – | – | – | – | > 100 | – | – | – | –
COc1ncnc(C2CC2)c1-c1ncc2cnn(Cc3ccc(-c4nc(C(F)(F)F)cn4C(C)C)cc3)c2n1 | > 100 | > 100 | > 100 | 65.1 | 39 µM | – | > 100 | 85.4 | 75.6 | 14.2 | 21.1 | 28.1 | 18.4 | 14.2 | 16.2 | 80.9 | 18.4 | 16.1 | – | 31
O=C(O/N=C1/CCCC/C1=C\c1ccccc1)c1ccccc1 | – | 0.78 | > 100 | > 100 | > 100 µM | > 100 | 40.2 | – | – | – | – | – | – | – | – | > 100 | – | – | – | –
COC(=O)c1cc2c(cc1O)[C@@H](NC(C)=O)CCc1cc(OC)c(OC)c(OC)c1-2 | > 100 | – | > 100 | > 100 | 76.6 µM | > 100 | – | > 100 | > 100 | 0.0214 | – | 0.0293 | 0.0296 | 1.06 | 0.447 | > 100 | < 0.01 | – | 0.0159 | –
COC(=O)c1cc2c3ccccc3n(C(C)=O)c2cn1 | 48.9 | > 100 | > 100 | > 100 | > 100 µM | > 100 | > 100 | > 100 | > 100 | – | – | – | – | – | – | – | – | – | – | –
C/C(=C\CCc1ccoc1)CC/C=C(\C)CCCC1=CC(=O)OC1 | > 100 | > 100 | 45 | 18 | 40.1 µM | 29.7 | 32.7 | 27.8 | – | 5.01 | 19.5 | 7.28 | 5.21 | – | 17.7 | > 100 | 3.79 | 13.2 | 4.73 | 6.3
NC(=NCCCOc1ccc(Cl)cc1)Nc1ccc(C(F)(F)F)cc1 | 9.03 | 4.12 | 3.46 | 3.28 | – | 3.61 | 3.77 | 4.97 | 8.01 | 2.48 | 1.47 | 1.69 | 2 | 2.15 | 2.77 | 15.9 | 1.7 | – | 1.81 | 1.59
CC(C)(C)OC(=O)NCC(=O)OCc1ccccc1 | – | > 100 | > 100 | > 100 | > 100 µM | > 100 | > 100 | > 100 | – | – | – | – | – | – | – | > 100 | – | – | – | –
Ic1ccc(Nc2nc3nonc3nc2Nc2ccc(I)cc2)cc1 | – | > 100 | – | 0.893 | – | – | 0.545 | > 32 | > 100 | 0.214 | 0.46 | – | 0.156 | 0.246 | 0.304 | > 100 | 0.215 | – | – | 0.175
C=C(C=O)C1CCC2(C(=O)O)CCC3(C)C(CCC4C5(C)CCC(O)C(C)(C)C5CCC43C)C12 (stereo not given) | – | 4.21 | 6.92 | 15.1 | 8.06 µM | 3.57 | > 100 | 4.43 | 22.2 | – | 1.92 | 2.23 | 2.05 | 4.83 | 2.15 | 10.5 | 3.39 | 2.83 | 1.64 | 4.1
CC(O)C(N=Cc1ccccc1[O-])C(=O)[O-].CC(O)C(N=Cc1ccccc1[O-])C(=O)[O-].[Co+2] (stereo not given) | – | > 100 | > 100 | > 100 | > 100 µM | > 100 | > 100 | – | – | – | > 100 | > 100 | – | – | 29.9 | > 100 | > 100 | > 100 | 65.8 | 39.1
CC(=O)O.CC(=O)O.CC(=O)O.CC(=O)O.CC(=O)O.CC(=O)O.O.[Ti].[Ti] | > 100 | > 100 | > 100 | > 100 | > 100 µM | > 100 | > 100 | – | > 100 | > 100 | > 100 | > 100 | – | > 100 | > 100 | > 100 | > 100 | > 100 | > 100 | > 100
O=C(O)CNc1cc(-c2ccccc2)nc(NCC(=O)O)n1 | > 100 | > 100 | > 100 | > 100 | > 100 µM | > 100 | > 100 | > 100 | > 100 | – | – | – | – | – | – | – | – | – | – | –
O=[n+]1c2c(n([O-])c3ccccc31)CCCCCCCCCC2 | > 100 | > 100 | > 100 | > 100 | > 100 µM | > 100 | > 100 | – | – | – | – | – | – | – | – | > 100 | – | – | – | –
CC/C(=C(/c1ccc(OCCN(C)C)cc1)c1ccc(OC(=O)CCCCC(=O)c2c(C)[nH]c(/C=C3\N=C(c4ccc[nH]4)C=C3OC)c2C)cc1)c1ccccc1 | 36.1 | 46 | 4 | – | 20.6 µM | 17.8 | 41.9 | 15.5 | 22.3 | 6.27 | 13.3 | 1.84 | 3.99 | 4.39 | 7.79 | 30 | – | 7.32 | 4.94 | 18
O=C1OC(c2ccccc2)=N/C1=C/C=C/c1ccco1 | > 100 | > 100 | > 100 | > 100 | > 100 µM | > 100 | – | – | > 100 | – | – | – | – | – | – | > 100 | – | – | – | –

— PubChem BioAssay (NCI)
